Measurements: publication PMC9832347 (2023)

System: Probe DNA / complementary DNA (porcine) hybrid (DNA, duplex) CTGATAGTAGATTTGTGATGACCGTAGCCC/CTACGGTCATCACAAATCTACTATCAG
Experiment: differential pulse voltammetry, redox indicator on DNA electrode
Settings: 30 μM 2b mixed with complementary DNA 1 × 10^-8 M; buffer wash; peak 1.45 μA; qualitative

## CC1=NCCNC(C)(C)CC(C)=NCCNC(C)(C)C1.[Cu+2]
  binding: yes
